Measurements taken from patent publication US20090042958A1, “Composition and method for treating immune-mediated skin disorders” (Geneblue Corporation, priority 2006, published 2009).
Where “and” joins values, the source holds several entries; their conditions need not be identical. Equal values may be shown once.

Tests used:
Format in all cases: cell-based, human
[1] = tested on: TNF-α; assay: TNF-α release (ELISA) after UVB irradiation, EpiDerm/keratinocyte model; details: for TNF-α (pg/ml), Sample2 / TNF-α (pg/ml), sample1: TNF-α released into media after UVB ~30 mJ/cm^2; for TNF-α (pg/ml), Sample2: UVB + Vehicle 147; for TNF-α (pg/ml), sample1: UVB + Vehicle 257; for TNF-α Avg.: average of sample 1 and 2, UVB + Vehicle 202
Protocol: (§1) Stock solutions of test materials are listed below: • 1. UTL-5d stock: 1.7 mg/ml UTL-5d in a vehicle of 50:50 EtOH:PEG 600 v/v • 2. UTR-1 stock: 3.5 mg/ml UTR-1 in a vehicle of 50:50 EtOH:PEG 600 v/v • 3. Vehicle stock: 50:50 EtOH:PEG 600
(§2) Human epidermal keratinocytes were seeded into 6-well plates and grown at 37±2° C. and 5±1% CO2 using serum free Epilife media supplemented as recommended by the manufacturer. Upon reaching confluency, the media were removed and the cells were treated overnight with Epilife media containing 1% v/v each of the stock solutions above (Vehicle stock and UTR-1 stock). Final concentration was 35 μg/ml for UTR-1. Two wells in the 6-well plate were prepared for each treatment. After applying the test material the cells were incubated for 24 hours at 37±2° C. and 5±1% CO2.
At the end of the incubation period the culture media was removed via aspiration and replaced with phosphate buffered saline. The cells were then irradiated with ˜30 mJ/cm^2 of UVB radiation. Fresh culture media was then applied to the cells and the cells were incubated overnight at 37±2° C. and 5±1% CO2. After the incubation the cell culture media was collected to measure TNF-α release by a commercial ELISA Assay kit.

[2] = tested on: TNFSF13; assay: Micro array gene expression analysis, TNFSF13; details: keratinocytes, UVB irradiated; treated/untreated (Cy5/Cy3)
Protocol: as §1, §2
(§3) At the end of the incubation period the culture media was removed via aspiration and replaced with phosphate buffered saline. […]
(§4) The cells were washed once with PBS and then a trypsin/EDTA solution was added to release the cells, followed by the addition of trypsin neutralizing solution. […] In general, (1) the fluorescence intensity of the gene marker should be greater than the background intensity, and (2) the ratio of Cy5/Cy3 (treated/untreated) fluorescence intensity needs to be greater than 1.3 or less than 0.66 to indicate a change of ±30% in gene expression.

[3] = tested on: CDCP1; assay: Micro array gene expression analysis, CDCP1; details: keratinocytes, UVB irradiated; treated/untreated (Cy5/Cy3)
Protocol: as §1, §2, §3, §4

[4] = tested on: MAP3K2; assay: Micro array gene expression analysis, MAP3K2; details: keratinocytes, UVB irradiated; treated/untreated (Cy5/Cy3)
Protocol: as §1, §2, §3, §4

[5] = tested on: PTGFR; assay: Micro array gene expression analysis, PTGFR; details: keratinocytes, UVB irradiated; treated/untreated (Cy5/Cy3)
Protocol: as §1, §2, §3, §4

[6] = tested on: TNFRSF6B; assay: Micro array gene expression analysis, TNFRSF6B; details: keratinocytes, UVB irradiated; treated/untreated (Cy5/Cy3)
Protocol: as §1, §2, §3, §4

[7] = tested on: ITGB6; assay: Micro array gene expression analysis, ITGB6; details: keratinocytes, UVB irradiated; treated/untreated (Cy5/Cy3)
Protocol: as §1, §2, §3, §4

[8] = tested on: PTGER3; assay: Micro array gene expression analysis, PTGER3; details: keratinocytes, UVB irradiated; treated/untreated (Cy5/Cy3)
Protocol: as §1, §2, §3, §4

[9] = tested on: TUCAN; assay: Micro array gene expression analysis, TUCAN; details: keratinocytes, UVB irradiated; treated/untreated (Cy5/Cy3)
Protocol: as §1, §2, §3, §4

[10] = tested on: EFA6R; assay: Micro array gene expression analysis, EFA6R; details: keratinocytes, UVB irradiated; treated/untreated (Cy5/Cy3)
Protocol: as §1, §2, §3, §4

[11] = tested on: PTGIR; assay: Micro array gene expression analysis, PTGIR; details: keratinocytes, UVB irradiated; treated/untreated (Cy5/Cy3)
Protocol: as §1, §2, §3, §4

[12] = tested on: PTGER2; assay: Micro array gene expression analysis, PTGER2; details: keratinocytes, UVB irradiated; treated/untreated (Cy5/Cy3)
Protocol: as §1, §2, §3, §4

[13] = tested on: JAK3; assay: Micro array gene expression analysis, JAK3; details: keratinocytes, UVB irradiated; treated/untreated (Cy5/Cy3)
Protocol: as §1, §2, §3, §4

[14] = tested on: DEFA6; assay: Micro array gene expression analysis, DEFA6; details: keratinocytes, UVB irradiated; treated/untreated (Cy5/Cy3)
Protocol: as §1, §2, §3, §4

[15] = tested on: TGFB2; assay: Micro array gene expression analysis, TGFB2; details: keratinocytes, UVB irradiated; treated/untreated (Cy5/Cy3)
Protocol: as §1, §2, §3, §4

[16] = tested on: APOBEC1; assay: Micro array gene expression analysis, APOBEC1; details: keratinocytes, UVB irradiated; treated/untreated (Cy5/Cy3)
Protocol: as §1, §2, §3, §4

[17] = tested on: EPHB4; assay: Micro array gene expression analysis, EPHB4; details: keratinocytes, UVB irradiated; treated/untreated (Cy5/Cy3)
Protocol: as §1, §2, §3, §4

[18] = tested on: PTGER1; assay: Micro array gene expression analysis, PTGER1; details: keratinocytes, UVB irradiated; treated/untreated (Cy5/Cy3)
Protocol: as §1, §2, §3, §4

Cc1cc(C(=O)Nc2ccc(Cl)cc2)no1 [UTL-5d]
TNF-α (pg/ml), Sample2 [1]: 67 pg/mL | TNF-α (pg/ml), sample1 [1]: 61 pg/mL | TNF-α Avg. [1]: 64 pg/mL | TNFSF13 Gene expression (%) [2]: 47.0% | CDCP1 Gene expression (%) [3]: 44.1% | MAP3K2 Gene expression (%) [4]: 59.9% | PTGFR Gene expression (%) [5]: 24.5% | TNFRSF6B Gene expression (%) [6]: 52.1% | ITGB6 Gene expression (%) [7]: 24.3% | PTGER3 Gene expression (%) [8]: 42.7% | TUCAN Gene expression (%) [9]: 26.0% | EFA6R Gene expression (%) [10]: 29.2% | PTGIR Gene expression (%) [11]: 27.0% | PTGER2 Gene expression (%) [12]: 39.9% | JAK3 Gene expression (%) [13]: 34.7% and 29.3% | DEFA6 Gene expression (%) [14]: 44.3% | TGFB2 Gene expression (%) [15]: 38.2% | APOBEC1 Gene expression (%) [16]: 29.2% | EPHB4 Gene expression (%) [17]: 35.8% | PTGER1 Gene expression (%) [18]: 33.8%

Cc1cc(C(=O)O)no1 [UTR-1]
TNF-α (pg/ml), Sample2 [1]: 119 pg/mL | TNF-α (pg/ml), sample1 [1]: 120 pg/mL | TNF-α Avg. [1]: 120 pg/mL | TNFSF13 Gene expression (%) [2]: 42.5% | CDCP1 Gene expression (%) [3]: 65.6% | MAP3K2 Gene expression (%) [4]: 59.2% | PTGFR Gene expression (%) [5]: 40.0% | TNFRSF6B Gene expression (%) [6]: 68.0% | ITGB6 Gene expression (%) [7]: 30.0% | PTGER3 Gene expression (%) [8]: 40.8% | TUCAN Gene expression (%) [9]: 33.3% | EFA6R Gene expression (%) [10]: 37.5% | PTGIR Gene expression (%) [11]: 39.4% | PTGER2 Gene expression (%) [12]: 58.0% | JAK3 Gene expression (%) [13]: 38.6% and 41.7% | DEFA6 Gene expression (%) [14]: 38.0% | TGFB2 Gene expression (%) [15]: 57.9% | APOBEC1 Gene expression (%) [16]: 33.3% | EPHB4 Gene expression (%) [17]: 43.3% | PTGER1 Gene expression (%) [18]: 28.6%
